Source: patent US5478864A, “Method for disinfection using a 1,n-bis(N^5 -trifluoromethyl-phenyl-N^1 -biguanido)-alkane” (Mitsubishi Materials Corp., priority 1991, dated 1995)
≈ marks a conversion by molar mass, not a printed value. Where two headings read alike, the source gives them in different places.

What was measured:
Escherichia coli IID 951 = assay: minimum growth inhibition concentration, agar dilution; type: cell-based; conditions: IID951, Mueller-Hinton agar, IID 951, read-out: MIC
Method: (§1) Germicidal activity of the compound prepared in Example 1 (Compound I) was evaluated by the minimum growth inhibition concentration method (based on the standard method stipulated by Japan Society of Chemotherapy) and the phenol coefficient method.
(§2) A portion of the digluconate salt of the compound of Example 1 was dissolved in water and the solution was heated to dryness on a water bath. The dried salt was dissolved in acetic acid (potentiometric titration grade) and the concentration thereof was determined by potentiometric titration using a perchloric acid solution. The gluconate acid salt solution, whose concentration was thus determined, was diluted to predetermined concentrations with sterilized water. Each 1 ml of the solution of each concentration was placed in a Petri dish, 9 ml of Mueller-Hinton agar (supplied by Difco) was added thereto and well mixed. Thus sensitivity test media were prepared. The concentrations of the compound were 200 μg/ml and 2^n times wherein (n=-8 to 2). Separately, microorganism strains indicated in Table 1 were subcultured in propagation media (using Mueller-Hinton broth supplied by Difco) at 37° C. for 24 hours. The microorganism concentration was adjusted to 10^6 /ml. The thus obtained cultures were respectively inoculated on a series of sensitivity measuring culture media using an inoculation rod. […] The results are shown in Table 1 together with the result on chlorhexidine as a control.
(§3) Compounds of formula I, wherein the trifluoromethyl group is located at the p-position and n is 2, 3, 5, 8 and 11, were prepared starting from ethylene diamine dichloride, 1,3-propane diamine dichloride, 1,5-pentane diamine dichloride, 1,8-octane diamine dichloride or 1,11-undecane diamine dichloride, sodium dicyanamide and 4-trifluoromethyl aniline hydrochloride in accordance with the procedures as described above and minimum growth inhibition concentration (MIC) was determined in the same manner as above.
(§4) Disinfecting effect of the above-prepared compounds was tested by measurement of minimum growth inhibition concentration and by the test for immediate effect in the same manner as in Example 3.
(§5) Compounds of formula I, wherein the trifluoromethyl group is located at the m-position and n is 2, 3, 5 and 8, 11 were prepared starting from ethylene diamine dihydrochloride, 1,3-propane diamine dihydrochloride, 1,5-pentane diamine dihydrochloride, 1,8-octane diamine dihydrochloride or 1,11-undecane diamine dihydrochloride, sodium dicyanamide and 3-trifluoromethylaniline hydrochloride in accordance with the procedures of Example 4 and germicidal activity thereof were determined in the same manner.

[1] = test system: Pseudomonas aeruginosa IID 1042; assay: as above; type: cell-based
Method: as §1, §2, §3, §4, §5

[2] = test system: Serratia marcescens IID 602; assay: as above; type: cell-based; conditions: IID602, Mueller-Hinton agar, IID 602, read-out: MIC
Method: as §1, §2, §3, §4, §5

[3] = test system: Staphylococcus aureus FDA 209-P; assay: as above; type: cell-based; conditions: FDA209, Mueller-Hinton agar
Method: as §1, §2, §3, §4, §5

[4] = test system: Achromobacter xylosoxidans RIMD 0101001; assay: as above; type: cell-based; conditions: RIMD0101001, Mueller-Hinton agar, digluconate
Method: as §1, §2, §4

[5] = test system: Alcaligenes faecalis IPO 13111; assay: as above; type: cell-based; conditions: IPO13111, Mueller-Hinton agar, digluconate
Method: as §1, §2, §4

Escherichia coli IID 861 [6] = assay: as above; type: cell-based; conditions: IID861, Mueller-Hinton agar, digluconate, IID 861, read-out: MIC
Method: as §1, §2, §4

[7] = test system: Escherichia coli NIHJ JC-2; assay: as above; type: cell-based; conditions: NIHJJC2, Mueller-Hinton agar, digluconate, NIHJ JC-2, read-out: MIC
Method: as §1, §2, §4

[8] = test system: Flavobacterium meningosepticum RIMD 0614002; assay: as above; type: cell-based; conditions: Elizabethkingia meningoseptica, RIMD0614002; Mueller-Hinton agar; digluconate
Method: as §1, §2, §4

[9] = test system: Klebsiella pneumoniae IID 865; assay: as above; type: cell-based; conditions: IID865, Mueller-Hinton agar, digluconate, read-out: MIC
Method: as §1, §2, §4

Proteus vulgaris IID 874 = assay: as above; type: cell-based; conditions: IID874, Mueller-Hinton agar, digluconate
Method: as §1, §2, §4

[10] = test system: Pseudomonas aerugimosa (clinically collected); assay: as above; type: cell-based; conditions: Mueller-Hinton agar, digluconate
Method: as §1, §2, §4

[11] = test system: Pseudomonas cepacia (collected Chiba Univ.); assay: as above; type: cell-based; conditions: Burkholderia cepacia, Mueller-Hinton agar, digluconate
Method: as §1, §2, §4

[12] = test system: Staphylococcus epidermis IID 866; assay: as above; type: cell-based; conditions: IID866, Mueller-Hinton agar, digluconate, IID 866, read-out: MIC
Method: as §1, §2, §4

[13] = test system: Staphylococcus aureus (clin'ly col'ted MRSA); assay: minimum growth inhibition concentration, agar dilution (first MRSA line); type: cell-based; conditions: Mueller-Hinton agar, digluconate, clinically collected MRSA, first line, read-out: MIC
Method: as §1, §2, §4

[14] = test system: Staphylococcus aureus (clin'ly col'ted MRSA); assay: minimum growth inhibition concentration, agar dilution (second MRSA line); type: cell-based; conditions: Mueller-Hinton agar, digluconate, clinically collected MRSA
Method: as §1, §2, §4

Escherichia coli IID 861 [15] = assay: test for immediate effect (phenol coefficient method); type: cell-based; conditions: of three runs, conc. 0.001%, 20° C.
Method: Immediate effect of this compound was evaluated in accordance with the phenol coefficient method described in "Directions for Hygienic Tests" compiled by the Ministry of Health and Welfare of Japan. The method is as follows. (1) Culture medium Each 10 ml of the bouillon described below was taken into test tubes and they were sterilized with high pressure steam at 120° C. for 20 minutes. (2) Test method Diluted solutions of a series of concentrations of the sample compound were prepared for each of microorganisms listed in Table 2. Each 10 ml of the solutions was put into an appraisal test tube and the test tubes were placed in a thermostat bath kept at 20° C. Each microorganism was subcultured in the above described bouillon medium for testing disinfectants for three generations (37° C. for 48 hours). Each 1 ml of each culture was placed in each of the above-described series of appraisal test tubes and well mixed. After 2.5, 5, 10 and 15 minutes, 0.1 ml of the content of each appraisal test tube was taken and inoculated onto each portion of the bouillon medium for testing disinfectants. […] Each test was carried out three times. Immediate effect of disinfectants was compared by number of test runs in which microorganism growth was observed. […]

dental plaque = conditions: Warner et al, 1973; cited from earlier work
[16] = Pseudomonas aeruginosa, IID1042, Mueller-Hinton agar, read-out: MIC

| Structure (SMILES) | MIC (Escherichia coli IID 951) [µg/mL] | MIC [1, 16] [µg/mL] | MIC [2] [µg/mL] | MIC [3] [µg/mL] | other results |
| --- | --- | --- | --- | --- | --- |
| N=C(NCCCNC(=N)NC(=N)Nc1ccc(C(F)(F)F)cc1)NC(=N)Nc1ccc(C(F)(F)F)cc1 [n = 3 (p-position)] | 1.56 (≈ 2.94 µM) | 50 (≈ 94.3 µM) | 6.25 (≈ 11.8 µM) | 0.78 (≈ 1.47 µM) | – |
| N=C(NCCCNC(=N)NC(=N)Nc1cccc(C(F)(F)F)c1)NC(=N)Nc1cccc(C(F)(F)F)c1 [n = 3 (m-position)] | 3.13 (≈ 5.9 µM) | 50 (≈ 94.3 µM) | 12.5 (≈ 23.6 µM) | 3.13 (≈ 5.9 µM) | – |
| N=C(NCCCCCCCCNC(=N)NC(=N)Nc1cccc(C(F)(F)F)c1)NC(=N)Nc1cccc(C(F)(F)F)c1 [n = 8 (m-position)] | 1.56 (≈ 2.6 µM) | 25 (≈ 41.6 µM) | 6.25 (≈ 10.4 µM) | 1.56 (≈ 2.6 µM) | – |
| N=C(NCCNC(=N)NC(=N)Nc1ccc(C(F)(F)F)cc1)NC(=N)Nc1ccc(C(F)(F)F)cc1 [n = 2 (p-position)] | 12.5 (≈ 24.2 µM) | 200 (≈ 387 µM) | 50 (≈ 96.8 µM) | 25 (≈ 48.4 µM) | – |
| N=C(NCCCCCCNC(=N)NC(=N)Nc1cccc(C(F)(F)F)c1)NC(=N)Nc1cccc(C(F)(F)F)c1 [Ex. 5, 1,6-bis(N^5-m-trifluoromethylphenyl-N^1-biguanido)-hexane] | 1.56 (≈ 2.72 µM) | 25 (≈ 43.7 µM) | 6.25 (≈ 10.9 µM) | 0.78 (≈ 1.36 µM) | MIC [4]: 25 µg/mL (≈ 43.7 µM); MIC [5]: 6.25 µg/mL (≈ 10.9 µM); MIC (Escherichia coli IID 861 [6]): 1.56 µg/mL (≈ 2.72 µM); MIC [7]: 1.56 µg/mL (≈ 2.72 µM); MIC [8]: 200 µg/mL (≈ 349 µM); MIC [9]: 1.56 µg/mL (≈ 2.72 µM); MIC (Proteus vulgaris IID 874): 12.5 µg/mL (≈ 21.8 µM); MIC [10]: 25 µg/mL (≈ 43.7 µM); MIC [11]: 50 µg/mL (≈ 87.3 µM); MIC [12]: 1.56 µg/mL (≈ 2.72 µM); MIC ([1]; Mueller-Hinton agar, listed as n = 6 (m-position)): 25.0 µg/mL (≈ 43.7 µM); MIC [13]: 3.13 µg/mL (≈ 5.47 µM); MIC [14]: 1.56 µg/mL (≈ 2.72 µM); number of test runs in which microorganism growth was observed (Escherichia coli IID 861 [15]; contact time 2.5 min): 2; number of test runs in which microorganism growth was observed (Escherichia coli IID 861 [15]; contact time 5.0 min): 1; number of test runs in which microorganism growth was observed (Escherichia coli IID 861 [15]; contact time 10.0 min): 0; number of test runs in which microorganism growth was observed (Escherichia coli IID 861 [15]; contact time 15.0 min): 0; antiplaque activity (dental plaque): superior antiplaque activity at lower concentrations |
| N=C(NCCCCCNC(=N)NC(=N)Nc1cccc(C(F)(F)F)c1)NC(=N)Nc1cccc(C(F)(F)F)c1 [n = 5 (m-position)] | 3.13 (≈ 5.6 µM) | 12.5 (≈ 22.4 µM) | 6.25 (≈ 11.2 µM) | 0.78 (≈ 1.4 µM) | – |
| N=C(NCCNC(=N)NC(=N)Nc1cccc(C(F)(F)F)c1)NC(=N)Nc1cccc(C(F)(F)F)c1 [n = 2 (m-position)] | 12.5 (≈ 24.2 µM) | 200 (≈ 387 µM) | 50 (≈ 96.8 µM) | 12.5 (≈ 24.2 µM) | – |
| N=C(NCCCCCCNC(=N)NC(=N)NC1CCCCC1)NC(=N)NC1CCCCC1 [bis-cyclohexyl-substituted] | – | – | – | – | antiplaque activity (dental plaque): at the same level as chlorhexidin or better |
| N=C(NCCCCCCNC(=N)NC(=N)NC12CC3CC(CC(C3)C1)C2)NC(=N)NC12CC3CC(CC(C3)C1)C2 [bis-1-adamanthyl-substituted derivatives] | – | – | – | – | antiplaque activity (dental plaque): at the same level as chlorhexidin or better |
| N=C(NCCCCCCCCNC(=N)NC(=N)Nc1ccc(C(F)(F)F)cc1)NC(=N)Nc1ccc(C(F)(F)F)cc1 [n = 8 (p-position)] | 1.56 (≈ 2.6 µM) | 25 (≈ 41.6 µM) | 6.25 (≈ 10.4 µM) | 1.56 (≈ 2.6 µM) | – |
| N=C(NCCCCCCCCCCCNC(=N)NC(=N)Nc1cccc(C(F)(F)F)c1)NC(=N)Nc1cccc(C(F)(F)F)c1 [n = 11 (m-position)] | 25 (≈ 38.9 µM) | 400 (≈ 622 µM) | 100 (≈ 156 µM) | 12.5 (≈ 19.4 µM) | – |
| N=C(NCCCCCNC(=N)NC(=N)Nc1ccc(C(F)(F)F)cc1)NC(=N)Nc1ccc(C(F)(F)F)cc1 [n = 5 (p-position)] | 3.13 (≈ 5.6 µM) | 12.5 (≈ 22.4 µM) | 6.25 (≈ 11.2 µM) | 0.78 (≈ 1.4 µM) | – |
| N=C(NCCCCCCNC(=N)NC(=N)Nc1ccccc1)NC(=N)Nc1ccccc1 [bis-phenyl-substituted derivative] | – | – | – | – | antiplaque activity (dental plaque): no antiplaque activity |
| N=C(NCCCCCCCCCCCNC(=N)NC(=N)Nc1ccc(C(F)(F)F)cc1)NC(=N)Nc1ccc(C(F)(F)F)cc1 [n = 11 (p-position)] | 50 (≈ 77.8 µM) | 400 (≈ 622 µM) | 100 (≈ 156 µM) | 12.5 (≈ 19.4 µM) | – |
